Test results as given in patent US10508120B2, “TYK2 inhibitors and uses thereof” (Nimbus Lakshmi, Inc., priority 2017, dated 2019).

Experiments:
[1] = target: JAK2 kinase domain (JH1) (Homo sapiens (Human), UniProt O60674); test: JAK2 Radioactive Kinase Assay; assay type: biochemical; conditions: compound at 10 μM, ATP 10 μM; for inhibition at 10 µM: read-out: JAK2 JH1% Inhibition @ 10 μM
Procedure, shortened: (§1)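 Values are single-concentration percent inhibition figures. They were obtained with 10 μM compound in a radioactivity-based kinase assay run separately on each enzyme.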

[2] = target: human TYK2 (JH2domain-pseudokinase) (Homo sapiens (Human), UniProt P29597); test: TYK2 JH2 Domain Binding Assay (KINOMEscan)
Procedure, shortened: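 Competition binding of an NFkB-DBD fusion of human TYK2 JH2 (G556–D888), expressed in HEK293 and used as crude extract at <0.1 nM, against immobilized ligand beads; 1 h at room temperature in PBS/Tween/DTT/BSA buffer, 0.9% DMSO.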

[3] = target: Tyk2 kinase domain (DH1) (Homo sapiens (Human), UniProt P29597); test: Tyk2 Radioactive Kinase Assay; assay type: biochemical; conditions: compound at 10 μM, ATP 10 μM; for inhibition at 10 µM: read-out: Tyk2 JH1% Inhibition @ 10 μM
Procedure, shortened: as §1

Chain of Tyk2 kinase domain (DH1) (P29597 897-1176): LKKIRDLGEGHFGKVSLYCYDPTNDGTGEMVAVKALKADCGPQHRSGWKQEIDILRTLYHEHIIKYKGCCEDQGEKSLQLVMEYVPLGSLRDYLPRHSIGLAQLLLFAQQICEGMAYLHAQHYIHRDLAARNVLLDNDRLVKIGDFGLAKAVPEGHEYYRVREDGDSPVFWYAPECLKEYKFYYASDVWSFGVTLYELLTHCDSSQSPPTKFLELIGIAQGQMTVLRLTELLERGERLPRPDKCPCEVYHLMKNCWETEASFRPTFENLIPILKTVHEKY
Chain of human TYK2 (JH2domain-pseudokinase) (P29597 556-888): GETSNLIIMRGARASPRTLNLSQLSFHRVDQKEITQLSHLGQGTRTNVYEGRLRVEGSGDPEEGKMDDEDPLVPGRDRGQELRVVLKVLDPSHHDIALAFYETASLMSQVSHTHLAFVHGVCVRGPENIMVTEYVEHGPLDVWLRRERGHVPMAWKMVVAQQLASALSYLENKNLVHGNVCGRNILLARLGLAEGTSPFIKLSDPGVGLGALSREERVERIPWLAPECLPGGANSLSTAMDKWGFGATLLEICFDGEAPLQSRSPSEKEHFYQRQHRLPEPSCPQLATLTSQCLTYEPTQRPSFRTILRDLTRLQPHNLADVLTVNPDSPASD
Chain of JAK2 kinase domain (JH1) (O60674 849-1124): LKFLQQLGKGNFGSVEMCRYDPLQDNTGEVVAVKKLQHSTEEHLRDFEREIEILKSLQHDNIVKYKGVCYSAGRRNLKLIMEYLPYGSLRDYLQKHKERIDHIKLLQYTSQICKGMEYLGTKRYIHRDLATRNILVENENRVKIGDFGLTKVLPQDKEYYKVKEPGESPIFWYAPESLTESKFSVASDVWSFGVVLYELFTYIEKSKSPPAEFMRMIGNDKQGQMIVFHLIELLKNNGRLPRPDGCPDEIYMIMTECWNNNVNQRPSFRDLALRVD

Row | SMILES | inhibition at 10 µM [1] | Kd [2] | inhibition at 10 µM [3] | JAK2 JH1% Inhibition @ 10 μM [1] | Tyk2 JH1% Inhibition @ 10 μM [3]
1 | CNc1cc(Nc2cccnc2OC)nc2c(C(=O)NCCC(C)(C)O)cnn12 [I-420, N-(3-hydroxy-3-methylbutyl)-5-((2-methoxypyridin-3-yl)amino)-7-(methylamino)pyrazolo[1,5-a]pyrimidine-3-carboxamide] | < 50% | 0.2 to 1 nM | < 50% |  | 
2 | [2H]C([2H])([2H])Oc1ncccc1Nc1cc(NC)n2ncc(C(=O)NCCC(C)(C)O)c2n1 [I-421, N-(3-hydroxy-3-methylbutyl)-5-((2-(methoxy-d3)pyridin-3-yl)amino)-7-(methylamino)pyrazolo[1,5-a]pyrimidine-3-carboxamide] | < 50% | 0.2 to 1 nM | < 50% |  | 
3 | CNc1cc(Nc2cccnc2OC2CC2)nc2c(C(=O)NCCC(C)(C)O)cnn12 [I-422, 5-((2-cyclopropoxypyridin-3-yl)amino)-N-(3-hydroxy-3-methylbutyl)-7-(methylamino)pyrazolo[1,5-a]pyrimidine-3-carboxamide] | < 50% | 1 to 10 nM | < 50% |  | 
4 | CNc1cc(Nc2cccn(C[C@H]3CCCCO3)c2=O)nc2c(C(=O)N[C@@H]3C[C@@H]3F)cnn12 [I-427] | < 50% | 0.2 to 1 nM | < 50% |  | 
5 | CNc1cc(Nc2cccnc2OC)nc2c(C(=O)N[C@@H]3CC[C@@H]3O)cnn12 [I-430] | < 50% | 0.2 to 1 nM | < 50% |  | 
6 | CNc1cc(Nc2cc(F)cn(-c3nn(C)cc3C)c2=O)nc2c(C(=O)NC3CC3)cnn12 [I-431] | < 50% | > 10 nM | < 50% |  | 
7 | CNc1cc(Nc2cccc(C3CCCCO3)n2)nc2c(C(=O)NC3CC3)cnn12 (stereo not drawn) [I-432, N-cyclopropyl-7-(methylamino)-5-((6-(tetrahydro-2H-pyran-2-yl)pyridin-2-yl)amino)pyrazolo[1,5-a]pyrimidine-3-carboxamide] | < 50% | < 0.2 nM | < 50% |  | 
8 | CNc1cc(Nc2cccnc2OC)nc2c(C(=O)NCC(C)CO)cnn12 (stereo not drawn) [I-434, N-(3-hydroxy-2-methylpropyl)-5-((2-methoxypyridin-3-yl)amino)-7-(methylamino)pyrazolo[1,5-a]pyrimidine-3-carboxamide] | < 50% | < 0.2 nM | < 50% |  | 
9 | CNc1cc(Nc2cccn([C@H]3CCC[C@@H]3OC)c2=O)nc2c(C(=O)NC3CC3)cnn12 [I-436] |  | 0.2 to 1 nM |  | A (percent inhibition at 10 μM lower than 50) | A (percent inhibition at 10 μM lower than 50)
10 | CNc1cc(Nc2cccn([C@H]3CCC[C@@H]3OC)c2=O)nc2c(C(=O)NC3CC3)cnn12 [I-437] |  | 0.2 to 1 nM |  | A (percent inhibition at 10 μM lower than 50) | A (percent inhibition at 10 μM lower than 50)
11 | CNc1cc(Nc2cccnc2OC2CC2)nc2c(C(=O)N[C@H]3C[C@@H]3O)cnn12 [I-439, 5-((2-cyclopropoxypyridin-3-yl)amino)-N-((1S,2S)-2-hydroxycyclopropyl)-7-(methylamino)pyrazolo[1,5-a]pyrimidine-3-carboxamide] | < 50% | 0.2 to 1 nM | < 50% |  | 
12 | CNc1cc(-c2nn(C(C)C)c3ncccc23)nc2c(C(=O)NC3CC3)cnn12 [I-440] | < 50% | 0.2 to 1 nM | < 50% |  | 
13 | CNc1cc(-c2nn(C3CCOCC3)c3ncccc23)nc2c(C(=O)NC3CC3)cnn12 [I-441] | < 50% | 0.2 to 1 nM | < 50% |  | 
14 | CNc1cc(Nc2cccn([C@H]3CCC[C@@H]3OC)c2=O)nc2c(C(=O)N[C@@H]3C[C@@H]3F)cnn12 [I-442] | < 50% | 0.2 to 1 nM | < 50% |  | 
15 | CNc1cc(-c2nn(C3CCOC3)c3ncccc23)nc2c(C(=O)NC3CC3)cnn12 (stereo not drawn) [I-443] | < 50% | 0.2 to 1 nM | < 50% |  | 
16 | CNc1cc(Nc2cccn(-c3cnn(CC4CCOC4)c3)c2=O)nc2c(C(=O)NC3CC3)cnn12 (stereo not drawn) [I-444] | < 50% | < 0.2 nM | < 50% |  | 
17 | CNc1cc(Nc2cccnc2OC)nc2c(C(=O)N[C@H]3[C@@H]4COC[C@@H]43)cnn12 [I-445, N-((1R,5S,6r)-3-oxabicyclo[3.1.0]hexan-6-yl)-5-((2-methoxypyridin-3-yl)amino)-7-(methylamino)pyrazolo[1,5-a]pyrimidine-3-carboxamide] | < 50% | 0.2 to 1 nM | < 50% |  | 
18 | CNc1cc(Nc2cccnc2OC2CC2)nc2c(C(=O)N[C@H]3[C@@H]4COC[C@@H]43)cnn12 [I-446] | < 50% | 0.2 to 1 nM | < 50% |  | 
19 | [2H]C([2H])([2H])Oc1ncccc1Nc1cc(NC)n2ncc(C(=O)NC3[C@H]4COC[C@@H]34)c2n1 (stereo partly drawn) [I-447] | < 50% | < 0.2 nM | < 50% |  | 

Row | SMILES | inhibition at 10 µM [1] | Kd [2] | inhibition at 10 µM [3] | JAK2 JH1% Inhibition @ 10 μM [1] | Tyk2 JH1% Inhibition @ 10 μM [3]
20 | CNc1cc(Nc2cccnc2OC)nc2c(C(=O)N[C@H]3CCC[C@@H]3O)cnn12 [I-449, (S)—N-((1S,2S)-2-hydroxycyclopentyl)-5-((2-methoxypyridin-3-yl)amino)-7-(methylamino) pyrazolo[1,5-a]pyrimidine-3-carboxamide] | < 50% | 0.2 to 1 nM | < 50% |  | 
21 | CNc1cc(-c2nn(C(C)C)c3ncccc23)nc2c(C(=O)N[C@H]3C[C@H]3F)cnn12 [I-451] | < 50% | < 0.2 nM | < 50% |  | 
22 | CNc1cc(-c2nn(C3CCOC3)c3ncccc23)nc2c(C(=O)N[C@H]3C[C@H]3F)cnn12 (stereo partly drawn) [I-452] | < 50% | < 0.2 nM | < 50% |  | 
23 | CNc1cc(Nc2cccn(CCOC3CC3)c2=O)nc2c(C(=O)NC3CC3)cnn12 [I-453] | < 50% | 0.2 to 1 nM | < 50% |  | 
24 | CNc1cc(Nc2cccn(CCOC3CC3)c2=O)nc2c(C(=O)N[C@@H]3C[C@@H]3F)cnn12 [I-454] | < 50% | < 0.2 nM | < 50% |  | 
25 | CNc1cc(-c2nn(CCN3CCOCC3)c3ncccc23)nc2c(C(=O)NC3CC3)cnn12 [I-455] | < 50% | 1 to 10 nM | < 50% |  | 
26 | CNc1cc(-c2nn(CCN3CCOCC3)c3ncccc23)nc2c(C(=O)N[C@H]3C[C@H]3F)cnn12 [I-456] | < 50% | 1 to 10 nM | < 50% |  | 
27 | CNc1cc(-c2nn(CCN3CCCCC3)c3ncccc23)nc2c(C(=O)NC3CC3)cnn12 [I-457] | < 50% | 1 to 10 nM | < 50% |  | 
28 | CNc1cc(-c2nn(CCN3CCCCC3)c3ncccc23)nc2c(C(=O)N[C@H]3C[C@H]3F)cnn12 [I-458] | < 50% | 0.2 to 1 nM | < 50% |  | 
29 | [2H]C([2H])([2H])Oc1ncccc1Nc1cc(NC)n2ncc(C(=O)N[C@H]3CCC[C@H](O)C3)c2n1 [I-460] | < 50% | < 0.2 nM | < 50% |  | 
30 | [2H]C([2H])([2H])Oc1ncccc1Nc1cc(NC)n2ncc(C(=O)N[C@H]3CC[C@H](O)C3)c2n1 [I-462] | < 50% | < 0.2 nM | < 50% |  | 
31 | CNc1cc(Nc2cccnc2OC2CC2)nc2c(C(=O)N[C@@H]3CCC[C@H]3O)cnn12 [I-465, 5-((2-cyclopropoxypyridin-3-yl)amino)-N-((1R,2R)-2-hydroxycyclopentyl)-7-(methylamino)pyrazolo[1,5-a]pyrimidine-3-carboxamide] |  | 0.2 to 1 nM |  | A (percent inhibition at 10 μM lower than 50) | A (percent inhibition at 10 μM lower than 50)
32 | CNc1cc(Nc2cccnc2OC2CC2)nc2c(C(=O)N[C@H]3CCC[C@@H]3O)cnn12 [I-466, 5-((2-cyclopropoxypyridin-3-yl)amino)-N-((1S,2S)-2-hydroxycyclopentyl)-7-(methylamino)pyrazolo[1,5-a]pyrimidine-3-carboxamide] | < 50% | 0.2 to 1 nM | < 50% |  | 
33 | CNc1cc(Nc2cccnc2OC)nc2c(C(=O)N[C@H]3CC[C@H](O)C3)cnn12 [I-467] | < 50% | 0.2 to 1 nM | < 50% |  | 
34 | CNc1cc(Nc2cccnc2OC)nc2c(C(=O)NCCC3(O)CC3)cnn12 [I-468, N-(2-(1-hydroxycyclopropyl)ethyl)-5-((2-methoxypyridin-3-yl)amino)-7-(methylamino)pyrazolo[1,5-a]pyrimidine-3-carboxamide] | < 50% | 0.2 to 1 nM | < 50% |  | 
35 | CNc1cc(Nc2cccnc2OC2CC2)nc2c(C(=O)NCCC3(O)CC3)cnn12 [I-469, 5-((2-cyclopropoxypyridin-3-yl)amino)-N-(2-(1-hydroxycyclopropyl)ethyl)-7-(methylamino)pyrazolo[1,5-a]pyrimidine-3-carboxamide] | < 50% | 1 to 10 nM | < 50% |  | 
36 | [2H]C([2H])([2H])Oc1ncccc1Nc1cc(NC)n2ncc(C(=O)NCCC3(O)CC3)c2n1 [I-470, N-(2-(1-hydroxycyclopropyl)ethyl)-5-((2-(methoxy-d3)pyridin-3-yl)amino)-7-(methylamino)pyrazolo[1,5-a]pyrimidine-3-carboxamide] | < 50% | < 0.2 nM | < 50% |  | 
37 | CNc1cc(Nc2cccn(C3CCCN(C)C3)c2=O)nc2c(C(=O)NC3CC3)cnn12 (stereo not drawn) [I-471] | < 50% | 0.2 to 1 nM | < 50% |  | 
